Results as given in US9856245B2, “GPR40 agonists for the treatment of type II diabetes” (Janssen Pharmaceutica NV, priority 2015, dated 2018).
Several values for one entry are separate records, joined by “and”; a condition that tells them apart may be missing. Equal entries are not always repeated.

Biological target: T1, human GPR40 (Homo sapiens, UniProt O14842)
T1 construct: expressed in transfected cells
Assay: GPR40 calcium flux assay (hGPR40 Ca2+ Assay)
Type: cell-based
Details: transfected HEK293 cells stably expressing human GPR40; Fluo 8 calcium dye; multiple values = repeated testing; read-out: hGPR40 Ca^2+ Assay EC50
Experimental: Compounds were tested in a calcium flux assay using transfected HEK293 cells stably expressing either human GPR40 or rat GPR40. Human GPR40 expressing cells were cultured in DMEM-High Glucose media supplemented with 10% fetal bovine serum, 1× L-Glutamine, 1× Penicillin/Streptomycin and 500 μg/mL G418. Rat GPR40 expressing cells were cultured in DMEM-High Glucose media supplemented with 10% fetal bovine serum and 1 μg/mL puromycin. Cells were plated into poly-D-lysine coated 384-well plates and cultured overnight in a 37° C. humidified tissue culture incubator under 5% CO2/[…] atmosphere. On the day of the experiment, the culture media was replaced with assay buffer (HBSS, 20 mM HEPES, 0.1% BSA) and the cells incubated at 37° C. for 1 h. Calcium-sensitive fluorescent dye (Fluo 8 No-Wash Calcium Dye, ABD Bioquest) was then added and the cells incubated for another 30 min at 37° C. followed by 15 min at room temperature while protected from the light. The cell plate and a plate of diluted compounds of Formula (III) were loaded into a fluorescent plate reader that added compounds onto the cells while measuring the fluorescence intensity of each well. The plate reader recorded fluorescence intensity at 1 second intervals for 8 min and provided the data for analysis in an Excel format. EC50 values were calculated using Prism (GraphPad) software.

T1 sequence (O14842 whole entry): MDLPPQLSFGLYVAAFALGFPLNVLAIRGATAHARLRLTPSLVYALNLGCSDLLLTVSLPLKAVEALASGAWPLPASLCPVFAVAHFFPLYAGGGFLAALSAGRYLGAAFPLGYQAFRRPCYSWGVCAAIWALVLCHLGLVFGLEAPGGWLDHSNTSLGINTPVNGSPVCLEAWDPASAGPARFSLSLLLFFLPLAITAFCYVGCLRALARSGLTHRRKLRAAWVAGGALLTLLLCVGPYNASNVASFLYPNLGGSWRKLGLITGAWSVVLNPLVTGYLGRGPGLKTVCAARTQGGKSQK

EC50 | Compound
65 nM and 63 nM | COc1ccc(F)c(-n2nnc(COc3cccc([C@@H](CC(=O)O)C4CC4)c3)c2C2CC2)c1 [Cpd 85, (3S)-3-cyclopropyl-3-[3-[[5-cyclopropyl-1-(2-fluoro-5-methoxy-phenyl)triazol-4-yl]methoxy]phenyl]propanoic acid]
13 nM and 8 nM | COc1ccc(F)c(-n2nnc(COc3cccc([C@@H](CC(=O)O)C4CC4)c3)c2OC2CCCCC2)c1 [Cpd 97, (3S)-3-[3-[[5-(cyclohexoxy)-1-(2-fluoro-5-methoxy-phenyl)triazol-4-yl]methoxy]phenyl]-3-cyclopropyl-propanoic acid]
10 nM and 9 nM | COc1ccc(F)c(-n2nnc(COc3cccc([C@@H](CC(=O)O)C4CC4)c3)c2-c2ccc(C(C)(C)C)s2)c1 [Cpd 92, (3S)-3-[3-[[5-(5-tert-butyl-2-thienyl)-1-(2-fluoro-5-methoxy-phenyl)triazol-4-yl]methoxy]phenyl]-3-cyclopropyl-propanoic acid]
136 nM and 132 nM | COc1ccc(F)c(-n2cnc(COc3cccc([C@@H](CC(=O)O)C4CC4)c3)c2CC(C)C)c1 [Cpd 93, (3S)-3-cyclopropyl-3-[3-[[1-(2-fluoro-5-methoxy-phenyl)-5-isobutyl-imidazol-4-yl]methoxy]phenyl]propanoic acid]
273 nM | COc1ccc(F)c(-n2nnc(COc3cccc([C@@H](CC(=O)O)C4CC4)c3)c2N2CCOCC2)c1 [Cpd 80, (3S)-3-cyclopropyl-3-[3-[[1-(2-fluoro-5-methoxy-phenyl)-5-morpholino-triazol-4-yl]methoxy]phenyl]propanoic acid]
1 nM | COc1ccc(F)c(-n2nnc(COc3cc([C@@H](CC(=O)O)C4CC4)ccn3)c2C2=CCCC2(C)C)c1 [Cpd 64, (3S)-3-cyclopropyl-3-[2-[[5-(5,5-dimethylcyclopenten-1-yl)-1-(2-fluoro-5-methoxy-phenyl)triazol-4-yl]methoxy]-4-pyridyl]propanoic acid]

Compound | EC50
COc1ccc(F)c(-n2nnc(COc3cccc([C@@H](CC(=O)O)C4CC4)c3)c2OC2CCCC2)c1 [Cpd 67, (3S)-3-[3-[[5-(cyclopentoxy)-1-(2-fluoro-5-methoxy-phenyl)triazol-4-yl]methoxy]phenyl]-3-cyclopropyl-propanoic acid] | 6 nM and 10 nM (2×)
